Data as given in publication PMC10620772, “Design, synthesis, and biological evaluation of new pyrimidine-5-carbonitrile derivatives as novel anti-cancer, dual EGFR^WT/COX-2 inhibitors with docking studies” (RSC Advances, 2023).

Assays:
Type in all cases: cell-based, human
MDA-MB-231/ATCC = assay: NCI60 antitumor screening; conditions: 10 μM one-dose
UACC-257 = assay: NCI60 antitumor screening; conditions: 10 μM one-dose
SW-620 = assay: NCI60 antitumor screening; conditions: 10 μM one-dose
MALME-3M = assay: NCI60 antitumor screening; conditions: 10 μM one-dose
COLO 205 = assay: NCI60 antitumor screening; conditions: 10 μM one-dose
RXF 393 = assay: NCI60 antitumor screening; conditions: 10 μM one-dose
SK-OV-3 = assay: NCI60 antitumor screening; conditions: 10 μM one-dose
SK-MEL-5 = assay: NCI60 antitumor screening; conditions: 10 μM one-dose
HL-60(TB) = assay: NCI60 antitumor screening; conditions: 10 μM one-dose
TK-10 = assay: NCI60 antitumor screening; conditions: 10 μM one-dose
MDA-MB-468 = assay: NCI60 antitumor screening; conditions: 10 μM one-dose
NCI-H460 = assay: NCI60 antitumor screening; conditions: 10 μM one-dose
SK-MEL-2 = assay: NCI60 antitumor screening; conditions: 10 μM one-dose
SNB-75 = assay: NCI60 antitumor screening; conditions: 10 μM one-dose
HT29 = assay: NCI60 antitumor screening; conditions: 10 μM one-dose
SK-MEL-28 = assay: NCI60 antitumor screening; conditions: 10 μM one-dose
NCI-H322M = assay: NCI60 antitumor screening; conditions: 10 μM one-dose
T-47D = assay: NCI60 antitumor screening; conditions: 10 μM one-dose
SF-539 = assay: NCI60 antitumor screening; conditions: 10 μM one-dose
A549/ATCC = assay: NCI60 antitumor screening; conditions: 10 μM one-dose
RPMI-8226 = assay: NCI60 antitumor screening; conditions: 10 μM one-dose
OVCAR-3 = assay: NCI60 antitumor screening; conditions: 10 μM one-dose
M14 = assay: NCI60 antitumor screening; conditions: 10 μM one-dose
A498 = assay: NCI60 antitumor screening; conditions: 10 μM one-dose
CCRF-CEM = assay: NCI60 antitumor screening; conditions: 10 μM one-dose
SF-295 = assay: NCI60 antitumor screening; conditions: 10 μM one-dose
OVCAR-4 = assay: NCI60 antitumor screening; conditions: 10 μM one-dose
NCI-H522 = assay: NCI60 antitumor screening; conditions: 10 μM one-dose
HCT-15 = assay: NCI60 antitumor screening; conditions: 10 μM one-dose
MOLT-4 = assay: NCI60 antitumor screening; conditions: 10 μM one-dose
NCI/ADR-RES = assay: NCI60 antitumor screening; conditions: 10 μM one-dose
CAKI-1 = assay: NCI60 antitumor screening; conditions: 10 μM one-dose
NCI60 cell lines panel = assay: NCI60 antitumor screening, full panel; conditions: 10 μM one-dose, mean over NCI60
Method in brief: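 Single-concentration screen at 10 μM across the NCI60 panel (leukaemia, NSCLC, colon, CNS, melanoma, ovarian, renal, prostate, breast). Results are expressed as percent growth inhibition (GI%) of treated lines.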

UACC-62 = assay: NCI60 antitumor screening; conditions: 10 μM one-dose
SNB-19 = assay: NCI60 antitumor screening; conditions: 10 μM one-dose
MCF7 = assay: NCI60 antitumor screening; conditions: 10 μM one-dose
786–0 = assay: NCI60 antitumor screening; conditions: 10 μM one-dose
HS 578T = assay: NCI60 antitumor screening; conditions: 10 μM one-dose
SF-268 = assay: NCI60 antitumor screening; conditions: 10 μM one-dose
U251 = assay: NCI60 antitumor screening; conditions: 10 μM one-dose
SR = assay: NCI60 antitumor screening; conditions: 10 μM one-dose
HCT-116 = assay: NCI60 antitumor screening; conditions: 10 μM one-dose
SN12C = assay: NCI60 antitumor screening; conditions: 10 μM one-dose
IGROV1 = assay: NCI60 antitumor screening; conditions: 10 μM one-dose
HOP-62 = assay: NCI60 antitumor screening; conditions: 10 μM one-dose
NCI-H23 = assay: NCI60 antitumor screening; conditions: 10 μM one-dose
KM12 = assay: NCI60 antitumor screening; conditions: 10 μM one-dose
PC-3 = assay: NCI60 antitumor screening; conditions: 10 μM one-dose
UO-31 = assay: NCI60 antitumor screening; conditions: 10 μM one-dose
DU-145 = assay: NCI60 antitumor screening; conditions: 10 μM one-dose
MDA-MB-435 = assay: NCI60 antitumor screening; conditions: 10 μM one-dose
OVCAR-8 = assay: NCI60 antitumor screening; conditions: 10 μM one-dose
ACHN = assay: NCI60 antitumor screening; conditions: 10 μM one-dose
LOX IMVI = assay: NCI60 antitumor screening; conditions: 10 μM one-dose
HOP-92 = assay: NCI60 antitumor screening; conditions: 10 μM one-dose
OVCAR-5 = assay: NCI60 antitumor screening; conditions: 10 μM one-dose
K-562 = assay: NCI60 antitumor screening; conditions: 10 μM one-dose
BT-549 = assay: NCI60 antitumor screening; conditions: 10 μM one-dose
EKVX = assay: NCI60 antitumor screening; conditions: 10 μM one-dose
HCC-2998 = assay: NCI60 antitumor screening; conditions: 10 μM one-dose
NCI-H226 = assay: NCI60 antitumor screening; conditions: 10 μM one-dose

N#Cc1c(Cl)nc(SCc2ccc([N+](=O)[O-])cc2)nc1-c1ccc(F)cc1 [3c, 4-Chloro-6-(4-fluorophenyl)-2-((4-nitrobenzyl)thio) pyrimidine-5-carbonitrile]
GI% (MDA-MB-231/ATCC): — (GI% < 10) | GI% (UACC-257): 24.66% | GI% (SW-620): 37.21% | GI% (MALME-3M): — (GI% < 10) | GI% (COLO 205): 22.66% | GI% (RXF 393): 29.76% | GI% (SK-OV-3): 11.73% | GI% (SK-MEL-5): 22.36% | GI% (HL-60(TB)): 57.98% | GI% (TK-10): — (GI% < 10) | GI% (MDA-MB-468): 19.68% | GI% (NCI-H460): 13.48% | GI% (SK-MEL-2): — (GI% < 10) | GI% (SNB-75): — (GI% < 10) | GI% (HT29): 61.63% | GI% (SK-MEL-28): — (GI% < 10) | GI% (NCI-H322M): 13.28% | GI% (T-47D): 68.67% | GI% (SF-539): 28.21% | GI% (A549/ATCC): 33.50% | GI% (RPMI-8226): 41.51% | GI% (OVCAR-3): 13.71% | GI% (M14): 12.41% | GI% (A498): — (GI% < 10) | GI% (CCRF-CEM): 32.30% | GI% (SF-295): 29.81% | GI% (OVCAR-4): 18.42% | GI% (NCI-H522): 37.48% | GI% (HCT-15): 45.64% | GI% (MOLT-4): 38.07% | GI% (NCI/ADR-RES): 27.59% | GI% (CAKI-1): 32.89% | Mean GI% (NCI60 cell lines panel): 23.91% | GI% (UACC-62): 22.80% | GI% (SNB-19): 10.67% | GI% (MCF7): 27.06% | GI% (786–0): 21.29% | GI% (HS 578T): 13.31% | GI% (SF-268): 18.20% | GI% (U251): 31.17% | GI% (SR): — (GI% < 10) | GI% (HCT-116): 40.70% | GI% (SN12C): 29.81% | GI% (IGROV1): — (GI% < 10) | GI% (HOP-62): — (GI% < 10) | GI% (NCI-H23): 12.20% | GI% (KM12): 27.77% | GI% (PC-3): 57.37% | GI% (UO-31): 32.10% | GI% (DU-145): 24.93% | GI% (MDA-MB-435): — (GI% < 10) | GI% (OVCAR-8): 16.16% | GI% (ACHN): 14.60% | GI% (LOX IMVI): 14.22% | GI% (HOP-92): 45.40% | GI% (OVCAR-5): — (GI% < 10) | GI% (K-562): 44.30% | GI% (BT-549): 43.62% | GI% (EKVX): 20.38% | GI% (HCC-2998): 12.17% | GI% (NCI-H226): 46.54%
